Laboratory results published in patent publication EP1604643A1, “Cosmetic use of derivatives of 3-Phenylpropionic acid” (Cognis France, S.A.S., priority 2004, dated 2005).
Read-outs that look alike come from different tables or passages of the source.

Columns and labels:
Human fibroblasts = test: Cytophotoprotection of human fibroblasts against UVA radiation (cell proteins, MDA released); assay type: cell-based; conditions: for activity at 0.01 % strength / activity at 0.03 % strength: Homo sapiens, Fibroblast, light or radiation study, % against control, UVA 20 J/cm2; for activity at 0.01 % strength: dose 0.01 % w/v; for activity at 0.03 % strength: dose 0.03 % w/v
Procedure: The cytoprotection against UVA irradiation has been evaluated by a test on human fibroblasts because UVA radiation penetrates through the epidermis until the dermis where it induces oxidative stress, mainly by activation of photosensitising biological components, which catalyse the formation of ROS like anion superoxide, hydrogen peroxide and singlet oxygen, and lipoperoxydation of the cell membrane. These oxidative stress effects are evaluated in vitro due to measuring of the level of released malondialdehyde (MDA) (Morlière P., Moisan A., Santus R., Huppe G., Mazière J.C., Dubertret L. UV-A induced lipid peroxydation in cultured human fibroblasts. Biochim. Biophys. Acta (1991) Vol 1084, pp 261-269). The lipoperoxides formed after UVA irradiation undergo a decay into malondialdehyde which can form cross-links between many biological molecules like proteins with inhibition of enzymes and nucleic bases with risk of mutagenesis.
Human fibroblasts were inoculated with growth medium (DMEM+FCS) and incubated 3 days at 37°C, with 5% CO2. The growth medium was then exchanged by a medium containing the ingredient to be tested and was incubated 2 days at 37°C under an atmosphrere with 5 % of carbon dioxide. After the exchange of the medium bya balanced salt solution, the cell culture was irradiated with UVA radiation (20J/cm^2). Cell proteins were measured, and MDA released in the supernatant was determined spectrophotometrically.

[1] = Anti-inflammatory activity on human leucocytes cultured in vitro (Zymosan-induced respiratory burst, luminol luminescence); assay type: cell-based; conditions: human, leukocytes, % against control, average of 2-3 assays, each carried out 3 times, read-out: Cell number
Procedure: (§1) Human leukocytes (Polymorphonuclear neutrophilic granulocytes) were incubated with dihydrosinapinic acid during 1 day at 37°C under an atmosphere with 5 % carbon dioxide. The respiratory burst was induced by addition of a yeast extract ("Zymosan"). After incubation for 0.5 hours at 37 °C under an atmosphere with 5 % carbon dioxide the cell number was measured using an automatic cell counter and the rate of released reactive oxygen species was recorded by a luminescent reaction with luminol. (Pieper G.M., Gross G.J. EMD 52692 (bimakalim) a new potassium channel opener, attenuates luminol-enhanced chemiluminescence and superoxide anion radical formation by Zymosan-activated polymorphonuclear leukocytes (Immunopharmacology (1992) vol 23, pp 191-197). Table 3

[2] = tested on: Human leukocytes (Polymorphonuclear neutrophilic granulocytes); test: as above; assay type: cell-based
Procedure: as §1

[3] = Anti free radicals: DPPH° (diphenylpicryl-hydrazyl) test; conditions: optical density at 513 nm; average of two assays
Procedure: (§2) The anti-free radical (anti-FR) activity has been evaluated by chemical tests for the evaluation of the potential to scavenge free radicals R° (DPPH° test) and hydroxyl radicals HO°. Furthermore the anti-FR activity has been evaluated by biochemical tests to address the potential for scavenging of a kind of reactive oxygen species (ROS), so called superoxide anions (02°).
The DPPH° scavenging effect of dihydrosinapinic acid has been measured by recording the optical density at 513 nm (DEBY C. Relation entre les acides gras essentiels et le taux des antioxydants tissulaires chez la souris. SOCIETE BELGE DE BIOLOGIE, séance du 19 décembre 1970, pp: 2675-2680). The IC50 (Inhibitory Concentration 50 %: dose for which 50 % of DPPH° is scavenged, average of two assays) of dihydrosinapinic acid is 0.0006 % (w/v).

[4] = Anti hydroxyl radicals: HO° test with deoxyribose (Fenton's reaction); conditions: no EDTA; optical density at 532 nm; average of 2 assays
Procedure: as §2
The hydroxyle radical HO* (formed by H2O2 in presence of Fe++) oxidises deoxyribose, then a pink compound is formed by condensation of thiobarbituric acid with the oxidised form of deoxyribose. The level of oxidised deoxyribose is determined by measurement of the optical density at 532 nm.

Lipoxygenase = test: Inhibition test on lipoxygenase (released superoxide anions, luminol luminescent probes); assay type: biochemical; conditions: rate of released superoxide anions; mean of 2 assays
Procedure: The anti-free radical (anti-FR) activity has been evaluated by chemical tests for the evaluation of the potential to scavenge free radicals R° (DPPH° test) and hydroxyl radicals HO°. Furthermore the anti-FR activity has been evaluated by biochemical tests to address the potential for scavenging of a kind of reactive oxygen species (ROS), so called superoxide anions (02°). […] Lipoxygenase was incubated with a specific substrate (unsaturated fatty acid) and the ingredient to be tested. Then the rate of released superoxide anions was evaluated by Luminol luminescent probes. The IC50 (mean of 2 assays) of dihydrosinapinic acid was 0.0002 % (w/v).

[5] = average of 2 assays, each carried out three times, read-out: Cell proteins
[6] = irradiated control = 100, read-out: MDA released

Structure (SMILES): COc1cc(CCC(=O)O)cc(OC)c1O [Dihydrosinapinic acid, 3-(4-hydroxy-3,5-dimethoxyphenyl) propionic acid]
- activity at 0.01 % strength (Human fibroblasts; [5]): 121%
- activity at 0.01 % strength (Human fibroblasts; [6]): 47%
- activity at 0.03 % strength (Human fibroblasts; [5]): 140%
- activity at 0.03 % strength (Human fibroblasts; [6]): 12%
- protection of the cells against UVA-induced MDA released (Human fibroblasts; result in words, after incubation of the fibroblasts): strong protection
- viability ([1]; dose 0.0001 % w/v): 99%
- viability ([1]; dose 0.0003 % w/v): 98%
- activity at 0.0001 % strength ([2]; Homo sapiens, Leukocyte, % against control, dose 0.0001 % w/v, Zymosan-activated, read-out: Released ROS): 25%
- activity at 0.0003 % strength ([2]; Homo sapiens, Leukocyte, % against control, dose 0.0003 % w/v, Zymosan-activated, read-out: Released ROS): 13%
- respiratory burst (release of reactive oxygen species) ([2]; result in words, Zymosan-activated polymorphonuclear neutrophilic granulocytes): inhibited
- IC50 (dose for which 50 % of DPPH° is scavenged) [3]: 0.0006 % (w/v)
- IC50 (HO° test with deoxyribose) [4]: 0.025 % (w/v)
- IC50 (lipoxygenase inhibition) (Lipoxygenase): 0.0002 % (w/v)
